Measured values as given in patent US4571403A, “Antianginal medicated compound” (Institut Organicheskoi Khimii Imeni N.D. Zelinskogo …, priority 1984, dated 1986).
“Also recorded” adds a separate entry of the source.

Legend:
[1] = solubility in water; assay type: physicochemical; settings: white crystalline powder
[2] = test system: blood flow in aorta; assay: volumetric blood flow in the ascending aortic arch, anesthetized cats and dogs; assay type: in vivo; settings: 200-500 mg/kg intravenously
Source text: (§1) In experiments on cats and dogs under the general anesthesia conditions the volumetric flow rate of blood flow in the ascending part of the aortic arch has been recorded by the electromagnetic method using an electromagnetic blood flow meter and vessel sensors of appropriate size. On the basis of analysis of the phase curve of the blood flow, the main characteristics of heart activity and hemodynamics have been calculated. […] The averaged data of analysis of phase curves of the blood flow in cat's aorta under general anesthesia conditions (8 tests) are given in the Table hereinbelow.

[3] = test system: vessels of heart, kidney and limbs; assay: resistogram of vessels of heart, kidney and limbs; assay type: in vivo
Source text: To find out the participance of the vascular factor in redistribution of regional blood flow, resistogram of vessels of heart, kidney and limbs has been recorded. […] The effect of the preparation on the heart activity and basic characteristics of hemodynamics has been also studied.

[4] = test system: coronary blood flow; assay: rate of coronary blood flow and oxygen absorption by myocardium in anesthetized cats; assay type: in vivo
Protocol: At the same time, the content of oxyhemoglobin in the coronary venous blood is determined by the photometrical method and the absorption of oxygen by myocardium is calculated on the basis of the arterio-venous difference value.
The effect duration varies within the range of from 5 to 10 minutes. With increasing the preparation dose up to 500 mg/kg, the intensity and duration of the effect are increased reaching respectively 108±12% and 30-40 minutes.
Calculation of the amount of the heart-absorbed oxygen points to it explicit increase (29±2.3%).

[5] = test system: systemic arterial pressure; assay: effect on arterial pressure in cats and dogs; assay type: in vivo
Protocol: The effect of the preparation on the arterial pressure has been also studied. […] The average value of the maximum drop of pressure during the first 10 minutes after the administration is 8-10% of the initial level. In doses of 500 mg/kg the preparation causes hypotensive reaction with the intensity of 15-18% of the initial level at the duration of the effect of 20-30 minutes.

[6] = acute toxicity on rats; settings: rat, in vivo
Source text: (§2) The acute toxicity of the preparation according to the present invention has been studied on mice and rats.

[7] = test system: activity of heart and hemodynamics; assay: phase curve analysis of aortic blood flow: activity of heart and hemodynamics in anesthetized cats; assay type: in vivo; design: Maximum blood flow: unit not given here; settings: for Time of systolic ejaculation: background 0.14 ± 0.008; for Time of diastolic relaxation: background 0.22 ± 0.01; for Minute work: background 0.88 ± 0.09; for Systolic (beat) volume: background 1.93 ± 0.12; for Maximum blood flow: background 19.7 ± 2.1; for Maximum linear speed: background 35 ± 1.9; for Average arterial pressure: background 148 ± 7.6; for Pulse frequency: background 181 ± 5; for Minute volume: background 372 ± 26
Source text: as §1
Effect of the preparation (250 mg/kg intravenously) on the
activity of heart and basic characteristics of hemodynamics

[8] = test system: sympathetic nerves of heart and kidney; assay: tonic and reflectorial bioelectric activity in sympathetic nerves of heart and kidney; assay type: in vivo; settings: cats
Source text: In experiments on anesthetized (urethane+chloralose) and immobilized (succinylcholine bromide) cats (14 tests) there has been studied the effect of the preparation in various doses on the tonic and reflectorial bioelectric activity in sympathetic nerves of heart and kidney. Somatosympathetic reflexes are caused by electric irritation of afferent A- and C- fibers of the tibial nerve.

[9] = test system: mice; assay: acute toxicity on mice; assay type: in vivo
Source text: as §2

[10] = acute toxicity on mice; assay type: in vivo; settings: mouse, in vivo
Source text: as §2

[11] = test system: cardio-vascular effects; assay: overall cardiovascular effects / conclusions of the tests; settings: in vivo
Source text: The results of the above-described tests allow the following conclusions characterizing the properties of the medicated compound according to the present invention.

[12] = test system: rats; assay: chronical toxicity in rats, intraperitoneal; assay type: in vivo
[13] = 50 mg/kg intravenously, cats and dogs
[14] = 5 minutes after 250 mg/kg intravenously
[15] = 10 minutes after 250 mg/kg intravenously
[16] = 20 minutes after 250 mg/kg intravenously
[17] = 40 minutes after 250 mg/kg intravenously
[18] = intraperitoneal 200 mg/kg for 6 months and 1,000 mg/kg for 1 month

In the case of `CN1C(=O)N(C)C2C1N(C)C(=O)N2C` (centres unmarked) [the preparation, 2,4,6,8-tetramethyl-2,4,6,8-tetraazobicyclo-/3,3,0/-octanedione-3,7], the solubility in water [1] is reported as “well soluble in water”, the “duration of increased blood flow in aorta” value [2] is reported as 30 to 40 min and the “increase of blood flow in aorta” value [2] is reported as 50-70%. The tachycardia [2] was “uncertainly pronounced tachycardia”, the tension of vessels ([3]; heart, kidney and limbs) was “monodirectionally lowers tension of all vessels” and the “resistance of coronary vessels versus peripheral vessels” value ([3]; in vivo) was “lowered to a greater extent than that of peripheral vessels”. For the same molecule, the “arterio-venous difference relative to oxygen” value [4] was “lowering the arterio-venous difference relative to oxygen; also recorded: decrease in the arterio-venous difference relative to oxygen”, the “content of oxyhemoglobin in coronary venous blood” value [4] was “increased content of oxyhemoglobin in coronary venous blood” and the “increase of coronary blood flow versus absorption of oxygen by myocardium” value [4] was “surpasses the absorption of oxygen by myocardium”. For the same molecule, the “increase of coronary blood flow” value ([4]; 50 mg/kg intravenously, average) was 32±5%, the “duration of coronary blood flow effect” value ([4]; 500 mg/kg) was 30 to 40 min and the “increase of coronary blood flow” value ([4]; 500 mg/kg) was 108±12%. For the same molecule, the “increase of the amount of the heart-absorbed oxygen” value ([4]; calculated from arterio-venous difference) was 29±2.3%, the “arterial pressure reaction during the first 5 minutes” value [5, 13] was “uncertain hypertensive reaction” and the “effect on the systemic arterial pressure” value [5, 13] was “no essential effect on the systemic arterial pressure”. For the same molecule, the “changes of the arterial pressure” value ([5]; 250 mg/kg, cats and dogs) was “opposite-sign changes of the arterial pressure mainly of hypotensive character”, the “average value of the maximum drop of pressure” value ([5]; 250 mg/kg, first 10 minutes after administration, cats and dogs) was 8-10 % of the initial level and the “duration of the hypotensive effect” value ([5]; 500 mg/kg, cats and dogs) was 20 to 30 min. For the same molecule, the hypotensive reaction intensity ([5]; 500 mg/kg, cats and dogs) was 15-18 % of the initial level, the “influence on the adrenoreactive structures of the vessels” value ([5]; dog, in vivo) was “does not influence the adrenoreactive structures of the vessels” and the “depressor reactions on isoproterenol” value ([5]; isoproterenol 2.5 μg/kg) was “does not change the character”. For the same molecule, the “pressor reactions of arterial pressure on noradrenaline” value ([5]; noradrenaline 3 μg/kg) was “does not change the character”, the LD50 [6] was 3450 mg/kg and the heart function ([7]; 250 mg/kg intravenously) was “capable of increase the heart function”. For the same molecule, the “Time of systolic ejaculation” value [7, 14] was 0.12 ± 0.01 s, the “Time of diastolic relaxation” value [7, 14] was 0.22 ± 0.01 s and the Minute work [7, 14] was 1.12 ± 0.15 kgm. The “Systolic (beat) volume” value [7, 14] was 2.22 ± 0.15 mL, the Maximum blood flow [7, 14] was 30 ± 8.2 and the Maximum linear speed [7, 14] was 41 ± 2.7 cm/s. It also gave an Average arterial pressure [7, 14] of 137 ± 6.9 mm Hg, a Pulse frequency [7, 14] of 190 ± 6 b/min and a Minute volume [7, 14] of 464 ± 38 mL/min. The “Time of systolic ejaculation” value [7, 15] was 0.11 ± 0.09 s, the “Time of diastolic relaxation” value [7, 15] was 0.21 ± 0.01 s and the Minute work [7, 15] was 1.23 ± 0.11 kgm. The “Systolic (beat) volume” value [7, 15] was 2.34 ± 0.18 mL, the Maximum blood flow [7, 15] was 34 ± 2.6 and the Maximum linear speed [7, 15] was 49 ± 2.8 cm/s. It also gave an Average arterial pressure [7, 15] of 126 ± 8.1 mm Hg, a Pulse frequency [7, 15] of 197 ± 5 b/min and a Minute volume [7, 15] of 488 ± 43 mL/min. The “Time of systolic ejaculation” value [7, 16] was 0.13 ± 0.01 s, the “Time of diastolic relaxation” value [7, 16] was 0.20 ± 0.01 s and the Minute work [7, 16] was 0.97 ± 0.08 kgm. For the same molecule, the “Systolic (beat) volume” value [7, 16] was 2.01 ± 0.15 mL, the Maximum blood flow [7, 16] was 28 ± 1.4 and the Maximum linear speed [7, 16] was 38 ± 2.3 cm/s. For the same molecule, the Average arterial pressure [7, 16] was 139 ± 7.4 mm Hg, the Pulse frequency [7, 16] was 191 ± 7 b/min and the Minute volume [7, 16] was 415 ± 32 mL/min. The “Time of systolic ejaculation” value [7, 17] was 0.13 ± 0.008 s, the “Time of diastolic relaxation” value [7, 17] was 0.23 ± 0.009 s and the Minute work [7, 17] was 0.83 ± 0.10 kgm. For the same molecule, the “Systolic (beat) volume” value [7, 17] was 1.97 ± 0.12 mL, the Maximum blood flow [7, 17] was 21.4 ± 2.2 and the Maximum linear speed [7, 17] was 33. ± 3.1 cm/sec. For the same molecule, the Average arterial pressure [7, 17] was 146 ± 8.8 mm Hg, the Pulse frequency [7, 17] was 183 ± 7 b/min and the Minute volume [7, 17] was 397 ± 33 mL/min. For the same molecule, the “pressor responses caused by tetanic irritation of tibial nerve” value ([8]; 50 mg/kg) was “remain unchanged”, the “tonic and reflectorial activity in sympathetic nerves” value ([8]; 50 mg/kg) was “does not noticeably change the character and intensity of tonic and reflectorial activity in sympathetic nerves” and the “spontaneous activity and reflectorial responses” value ([8]; 50 mg/kg, in a certain number of the experiments) was “slight amplification of spontaneous activity and facilitation of reflectorial responses”. For the same molecule, the “C-responses of the reflectorial discharges” value ([8]; 250-500 mg/kg) was “suppressed”, the “inhibiting component of the reflectorial response” value ([8]; 250-500 mg/kg) was “amplification of the inhibiting component of the reflectorial response” and the “tonic activity in sympathetic nerves” value ([8]; 250-500 mg/kg) was “weakly inhibited”. For the same molecule, the LD50 [9] was 3,800 mg/kg of the body weight, the LD50 [10] was 3800 mg/kg and the arterial pressure [11] was “no substantial change of arterial pressure”. For the same molecule, the “colateral blood flow in deep (endocardial) layers of myocardium” value [11] was “contributes to the development of the colateral blood flow in deep (endocardial) layers of myocardium”, the “contractibility of myocardium (inotropic effect)” value [11] was “positive inotropic effect; also recorded: increases contractibility of myocardium” and the “frequency of heart contractions” value [11] was “without affecting the frequency of heart contractions”. The “functional state of the ischemic centre” value [11] was “capable of improving functional state of the ischemic centre; also recorded: capable of improve the functional state of the ischemic centre”, the “lactate in the blood outflowing from the ischemic zone” value [11] was “lowering the content of lactate in the blood outflowing from the ischemic zone” and the “sympathetic tonus of heart and vessels” value [11] was “capable of inhibiting the sympathetic tonus of heart and vessels”. For the same molecule, the “vascular component of pain reactions” value [11] was “capable of inhibiting the sympathetic tonus of heart and vessels, as well as vascular components of pain reactions; also recorded: suppresses the vascular component of pain reactions”, the “volumetric rate of total coronary blood flow” value [11] was “increases the volumetric rate of total coronary blood flow” and the accumulation [12, 18] was “not accumulated”. The “effect on hematoplasty and urination” value [12, 18] was “does not affect hematoplasty and urination” and the “histological changes in the visceral organs” value ([12]; kidney, liver, spleen, heart and the like, intraperitoneal 200 mg/kg 6 months, 1,000 mg/kg 1 month) was “no pathological changes in the visceral organs”.
